Each structure is given as a SMILES string.

A word on the melting point: it is the temperature, or range, at which the solid turns liquid.

Consider `COc1ccc(-c2cc(=O)n(Cc3ccc(F)cc3F)nc2-c2ccc(OC)cc2)cc1`, for which the melting point was 150 to 151 °C. For `COC(=O)CC/C(C)=C/Cc1c(OC)c(C)c2c(c1C(=O)O)C(=O)OC2`, the melting point lay within 169 to 170 °C. As for `COc1ccc(N2C(=O)[C@@H](N3C(=O)c4ccccc4C3=O)[C@H]2/C=C/c2ccccc2)cc1` (relative stereo), the figure is 202 to 203 °C; as for `COc1ccc2nc(CC(C)C)c(CN)c(-c3ccccc3)c2c1`, 73 to 76 °C. The figure for `CNc1cc(Oc2ccc3c(c2)CCCN3C(=O)Nc2ccc(C(C)(C)C)cc2)ncn1` is 175 to 176 °C; for `CCNc1nc(CC)c(C(=O)c2ccc(N)c([N+](=O)[O-])c2)s1` it is 210 to 212 °C. The figure for `CCOC(=O)c1ccc(N(Cc2ccc(Cl)cc2)C(C)=O)cc1` is 65 to 66 °C. `CN1CCN(CC(=O)NN)CC1` displayed a melting point of 87 to 89 °C.

The molecule `CNC(=NCCS(=O)Cc1[nH]cnc1C)NC#N` (centres undefined) showed a melting point of 185 to 186 °C. On to `S=C(NCc1cccnc1)NC(=Nc1cccc2ccccc12)c1ccccc1`, for which the melting point was in the range of 153 to 154 °C. Consider `CC1(C(=O)Nc2ccc(OC(=O)Cc3cccs3)c(Cl)c2Cl)CCCCC1`, for which the melting point worked out at 58 °C.

The molecule `O=C(NN=Cc1c(O)ccc2cc(O)ccc12)c1cc2ccccc2cc1O` displayed a melting point greater than 280 °C. Consider `O=C(c1ccccc1)c1ccc(OCc2nnn[nH]2)c(Cl)c1Cl`, for which the melting point lay in the range of 184 to 186 °C. As for `CC(=O)OC1CC2(C)C(=O)CCC2C2C(C)CC3=CC(=O)CCC3C12` (centres undefined), the figure is 183 °C; as for `CN(C)Cc1ccccc1Sc1ccc(F)cc1[N+](=O)[O-]`, 57 to 59 °C.

Turning to `O=C(O)c1ccc(F)cc1NS(=O)(=O)c1ccccc1`, the melting point lay within 158 to 159 °C. The figure for `NC(=O)CN1CC2C=CC1C2` (centres undefined) is 74 to 96 °C; for `CCCCCCCCc1ccc(CCC(N)(CO)CO)cc1` it is 103 to 105 °C; for `Cc1cc(/C=C/C(c2cc(Cl)cc(Cl)c2)C(F)(F)F)ccc1C(=O)NCc1cncnc1` (centres undefined) it is 141 to 144 °C. The figure for `CC(C)(C)OC(=O)N1C(=O)[C@H](O)[C@@H]1CC1CCCCC1` is 105 to 106 °C; for `CN(C)C=CC(=O)c1ccc(I)cc1` it is 117 to 118 °C; for `O=C(NCCCn1cnc2cnc3ccccc3c21)c1ccccc1` it is 188 to 190 °C. As for `O=C(O)c1ccccc1-c1nnc(-c2ccccc2)s1`, the figure is 178 to 180 °C. In the case of `O=[N+]([O-])c1ccccc1/C=C/c1ccccc1[N+](=O)[O-]`, the melting point fell in the range of 195 to 196 °C. As for `NC(Cc1ccccc1)C(=O)CCC(=O)O` (centres undefined), the figure is 138 to 139 °C; as for `CCCCSc1nc(N(C)C(C)=O)c(C#N)s1`, 40 °C. Consider `CCNC(=O)Nc1nc2cc(-c3cccnc3)ccn2n1`, for which the melting point is 230 to 233 °C. As for `O=C(O)c1ccc(Cn2cc(C3c4ccc(C(F)(F)F)cc4C=Cc4cc(C(F)(F)F)ccc43)c(=O)[nH]c2=O)o1`, the figure is 203 to 206 °C; as for `CCOC(=O)c1ncc(-c2cccs2)s1`, 68 to 69 °C. Take `Cc1ccccc1OC(Cc1ccc(OCCN(C)c2nc3ccccc3o2)cc1)C(=O)O` (centres undefined): the melting point was in the range of 142 to 143 °C. Molecule `Cc1ccc2nc(C3(c4ccc(S(N)(=O)=O)cc4)C=C(C(F)(F)F)NN3)oc2c1` (centres undefined) returned a melting point of 260 to 261 °C.

`OCC1(c2nn(Cc3ccccc3F)c3nccnc23)CC=CO1` (centres undefined): the melting point is 194 °C. As to `O=C1N(c2ccc(Cl)cc2Cl)Cc2cnc(Nc3ccccc3)nc2N1c1cccc(CCN2CCNCC2)c1`, the melting point was 126 °C. Take `CCOC(=O)Cc1ccc2c(c1)sc1ccc(C)cc12`: the melting point lay within 45 to 48 °C. As for `Cc1cc(C)nc(NC(=O)NS(=O)(=O)c2c([N+](=O)[O-])ccc3c2CCC3)n1`, the figure is 172 °C; as for `CC(C)(C)OC(=O)CNC(=S)Nc1cccc(C#N)c1`, 131 to 132 °C. As for `O=S(=O)(NCC(c1ccccc1)c1ccc(O)cc1)c1ccccc1` (centres undefined), the figure is 120 to 124 °C; as for `COc1cc2c3c(Br)cc(OC)c(OC)c3n(C(=O)c3ccc(C(C)(C)C)cc3)c2cc1OC`, 136 to 138 °C.

`CC(C)NC(=O)N1CCc2cc(S(=O)(=O)N3CC(c4ccccc4)NC3=O)ccc21` (centres undefined) displayed a melting point of 120 to 122 °C. The figure for `Cc1ccc(Oc2c(Cl)c(Oc3ccc(C)cc3)c(Oc3ccc(C)cc3)c(C#N)c2C#N)cc1` is 142 to 145 °C; for `Oc1ccc(-c2nc3cc(O)cc(Br)c3o2)c(C(F)(F)F)c1` it is 183 to 185 °C. As for `N#Cc1ccc(C(=O)NC(=S)NC2CC2)cc1`, the figure is 151 to 152 °C; as for `O=C1NC(=O)c2ccccc2/C1=C/Nc1cccc(CN2CCCCCC2)c1`, 116 to 117 °C. With `Cc1ccnc2c(-c3ccc(C)c4c(C)ccnc34)ccc(C)c12`, the melting point lay in the range of 290 to 295 °C. The figure for `O=C(c1ccco1)N1CCN(c2nc3c(c(-c4ccc(F)cc4)n2)CCC3)CC1` is 124 to 125 °C. Molecule `Cn1cc(C(=O)NCc2ccc(Cl)cc2)c(=O)c2cc(I)ccc21` returned a melting point of 205 to 208 °C. Consider `COc1ccc2oc(Cc3cccnc3)c(CCNC(C)=O)c2c1`, for which the melting point was 117 °C.

Take `COC(=O)c1cc(N)c(Oc2ccccc2)c(N)c1`: the melting point fell in the range of 140 to 142 °C. The figure for `COc1ccc(C(=O)Nc2ccccc2/C=C/c2ccnc(C)c2)cc1` is 183 to 184 °C; for `O=C(CCOc1cccc(-c2ccccc2)c1)NO` it is 113 to 116 °C; for `COc1ccc(C(=O)CC(=O)C(F)(F)F)cc1OC` it is 87 to 89 °C.

Molecule `CC(=O)N1CCC(C(=O)Nc2ccc(-n3nc(C(F)(F)F)cc3C(F)(F)F)cc2)CC1` registered a melting point of 94 to 95 °C. As to `CCNc1cncc(C(=NCCc2ccccc2Cl)NC#N)c1`, the melting point came out at 168 °C. The figure for `CC#CNC(=C[N+](=O)[O-])NCCSCc1ccccn1` is 147 to 148 °C; for `CCOC(=O)c1ccc(N(C(=O)OC(C)(C)C)N(C)C(C)=O)cc1` it is 82 °C. The figure for `CSC(CC(=O)O)c1ccccc1` (centres undefined) is 75 to 77 °C; for `N#Cc1ccc(-c2cnc(-c3ccc(C#N)cc3)nc2)cc1` it is 305 to 306 °C.

As to `CCc1nc2cc(N3CCN(C)CC3)nc(CC)n2n1`, the melting point fell in the range of 87 to 88 °C. In turn, `OCCCn1c(=S)[nH]c2c(OCc3ccccc3)cccc21` displayed a melting point of 124 to 125 °C. Molecule `OCCSc1ccc2cc(SCCO)ccc2c1` gave a melting point of 113 to 117 °C. As for `CC1(C)N=C(SCc2cccc3cccnc23)N=C1SCc1cccc2cccnc12`, the figure is 101 to 104 °C. Take `CC1CCC2(C)C(=CCC3C2CCC2(C)C3CCC23OCCO3)C1` (centres undefined): the melting point fell in the range of 121 to 122 °C. The figure for `CCOC(=O)c1cn(C2CC2)c2cc(-c3cc(C4OCC(C)(C)CO4)cc(OC)c3OC)c(F)cc2c1=O` is 178 to 180 °C.

The molecule `COc1ccc2[nH]c(SCc3ncnc(N4CCOCC4)c3C)nc2c1` came in with a melting point of 129 to 131 °C.

The values above are taken from a melting point compilation (Tetko et al.; mined from patent text by program, amines drawn as free bases though some values may be those of a salt).
